Assay results as given in the supplement of paper PMC10307832.

Legend:
Assay in all cases: relative viability (nuclei count vs DMSO), 5 days (fraction); higher = more cells survive
SGI-1776 + Tozasertib = compound: CN1CCC(CNc2ccc3ncc(-c4cccc(OC(F)(F)F)c4)n3n2)CC1 [SGI-1776] + Cc1cc(Nc2cc(N3CCN(C)CC3)nc(Sc3ccc(NC(=O)C4CC4)cc3)n2)n[nH]1 [Tozasertib] (partner 0.1 µM)
How it was run: (§1)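 One day after seeding in 1536-well plates, lung cancer cell lines were dosed by pin tool. Dosing was either single-drug or a fixed anchor-drug dose plus five library-drug doses (not always all listed) in √10 steps. After 5 days, nuclei were stained in one fix-and-stain step and counted on 4× images, and relative viability is the nuclei count of treated wells over that of vehicle wells, given as the median of duplicate plates.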

Entinostat + AZD7762 = compound: Nc1ccccc1NC(=O)c1ccc(CNC(=O)OCc2cccnc2)cc1 [Entinostat] + NC(=O)Nc1cc(-c2cccc(F)c2)sc1C(=O)N[C@H]1CCCNC1 [AZD7762] (partner 0.2 µM)
How it was run: as §1

Entinostat + Navitoclax = compound: Nc1ccccc1NC(=O)c1ccc(CNC(=O)OCc2cccnc2)cc1 [Entinostat] + CC1(C)CCC(c2ccc(Cl)cc2)=C(CN2CCN(c3ccc(C(=O)NS(=O)(=O)c4ccc(N[C@H](CCN5CCOCC5)CSc5ccccc5)c(S(=O)(=O)C(F)(F)F)c4)cc3)CC2)C1 [Navitoclax] (partner 0.5 µM)
How it was run: as §1

[1] = compound: C1COCCN1C2=NC(=NC3=C2OC4=C3C=CC=N4)C5=CC(=CC=C5)NC(=O)C6=CN=C(C=C6)N + CC(=O)c1c(C)c2cnc(Nc3ccc(N4CCNCC4)cn3)nc2n(C2CCCC2)c1=O [Palbociclib] (partner 0.5 µM)
How it was run: as §1

Cell Line | relative viability (SGI-1776 + Tozasertib; first compound 0.08 µM) | relative viability (SGI-1776 + Tozasertib; first compound 0.8 µM) | relative viability (SGI-1776 + Tozasertib; first compound 2.53 µM) | relative viability (SGI-1776 + Tozasertib; first compound 8 µM) | relative viability (Entinostat + AZD7762; first compound 0.02 µM) | relative viability (Entinostat + AZD7762; first compound 0.06325 µM) | relative viability (Entinostat + AZD7762; first compound 0.2 µM) | relative viability (Entinostat + AZD7762; first compound 0.6325 µM) | relative viability (Entinostat + AZD7762; first compound 2 µM) | relative viability (Entinostat + Navitoclax; first compound 0.02 µM) | relative viability (Entinostat + Navitoclax; first compound 0.06325 µM) | relative viability (Entinostat + Navitoclax; first compound 0.2 µM) | relative viability (Entinostat + Navitoclax; first compound 0.6325 µM) | relative viability (Entinostat + Navitoclax; first compound 2 µM) | relative viability ([1]; first compound 0.02 µM) | relative viability ([1]; first compound 0.06325 µM) | relative viability ([1]; first compound 0.2 µM) | relative viability ([1]; first compound 0.6325 µM) | relative viability ([1]; first compound 2 µM)
201T | 0.982 | 0.901 | 0.549 | 0.366 | 0.694 | 0.711 | 0.601 | 0.402 | 0.328 | 1.2 | 1.16 | 1.1 | 0.959 | 0.779 | 0.357 | 0.358 | 0.372 | 0.346 | 0.324
A549 | – | – | – | – | – | – | – | – | – | 1.22 | 1.21 | 1.07 | 0.787 | 0.395 | – | – | – | – | –
A-427 | 0.19 | 0.212 | 0.141 | 0.158 | 0.703 | 0.775 | 0.731 | 0.584 | 0.428 | 1.05 | 1.01 | 0.958 | 0.715 | 0.669 | 0.517 | 0.524 | 0.496 | 0.512 | 0.454
ABC-1 | 0.175 | 0.134 | 0.173 | 0.175 | 0.803 | 0.727 | 0.951 | 0.86 | 0.59 | – | – | – | – | – | 0.562 | 0.658 | 0.55 | 0.7 | 0.471
